In paper PMC3836994, “Killer Bee Molecules: Antimicrobial Peptides as Effector Molecules to Target Sporogonic Stages of Plasmodium” (PLoS Pathogens, 2013):
No end group written: not given here.

Tests used:
[1] = test system: An. gambiae (Mali strain); experiment: Mosquito longevity after blood feeds containing AMP; format: in vivo, Anopheles gambiae; conditions: for Significance of effect on longevity over 10 days: 50 µM AMP, Kaplan-Meier, Wilcoxon, peptide vs control; for Percent alive, peptide: over 10 days, 50 µM AMP in human blood, feeds on days 0 and 7, 3 or 4 replicates
Experimental: Female An. gambiae (Mali strain, 3–5 days old) were used to establish the effects of AMPs on mosquito longevity and fecundity in the absence of confounding factors introduced with parasite infection. Two hundred 3–6 day old females were fed on human O+ whole blood supplemented with 50 µM AMP (or water control, 1 ml total volume) via feeding chambers of a Hemotek membrane feeding system. Fully engorged mosquitoes were randomly moved into four separate cages, each containing 25 mosquitoes, to facilitate monitoring. Mortality rates were recorded daily for a 10-day period, and oviposition sites were provided on the second and third night post-feeding. A second blood feed containing the same AMP was administered 7 days later to mimic the likelihood that mosquitoes would feed at least twice in the field during the development of sporogonic stages of the malaria parasite. Oviposition sites were again provided to assess fecundity through the number of eggs laid as an average per surviving mosquito. Assays for each AMP were repeated in triplicate on separate generations of mosquitoes. Due to egg retention under experimental conditions, egg production is best measured by dissecting mosquitoes that have not been provided with an oviposition site. However, this is not a feasible method of determining fecundity when longevity is also being measured.

P. falciparum = experiment: Cultured P. falciparum gametocytes membrane-fed to An. gambiae (oocyst prevalence and intensity); format: in vivo, Plasmodium falciparum; conditions: 50 µM; for Oocyst intensity (mean number of oocysts per gut, range in parentheses), peptide / Oocyst prevalence (oocyst positive mosquitoes), peptide: cultured gametocytes, An. gambiae
Experimental: P. falciparum NF54 gametocytes were produced through large-scale automated culture at the Pasteur Institute, Paris, [69]. Gametocytes were grown in 10 ml RPMI 1640 medium (Invitrogen), supplemented with 25 mM HEPES and L-glutamine, 10% heat-inactivated human serum and hypoxanthine (20 mg/L) under a constant gas supply (5% CO2, 1% O2, 94% N2). Fresh red blood cells (RBCs) were added to obtain a 7% haematocrit. Fourteen days after initiating the culture, gametocyte maturity was assessed on thin Giemsa-stained blood smears, and male gametocyte maturity verified by exflagellation tests. Gametocyte cultures were centrifuged for 5 min at 1500 rpm and the ∼500–600 µl pellet resuspended in fresh RBCs and AB human serum to give a final haematocrit of 40%.
Blood containing mature gametocytes (475 µl) was added to 25 µl of the test AMP (50 µM final concentration). Peptides were replaced by 25 µl of sterile deionized water for each control. The blood/parasite/peptide mixture was placed in a Hemotek membrane feeder, previously warmed to 37°C. For each feed, 70 to 100 nulliparous female An. gambiae mosquitoes were left to feed in the dark for 15 min and only fully engorged females were transferred to small cages and provided with 10% sucrose containing 0.05% PABA. After 8 days, 30 midguts were dissected and stained with bromo fluorescein for the detection of oocysts.

P. berghei ookinetes = experiment: P. berghei ookinete viability in vitro (erythrosin B); format: cell-based, Plasmodium berghei; conditions: 30 min; for Reduction in ookinete viability: versus control
Experimental: Our primary aim was to target parasites in mosquitoes before they cross the midgut wall, therefore AMPs were first assessed for their ability to kill ookinetes in vitro. […] Ookinete cultures of P. berghei were established from gametocytaemic blood as previously described. Parasites were enriched using cold 0.17M ammonium chloride after 18 h of culture and washed thoroughly with PBS (phosphate buffered saline). Parasites were seeded in triplicate wells of a 96-well microtitre plate at a density of 1×10^5/ml in a volume of 47.5 µl Schneider's insect medium (Invitrogen) with 2.5 µl of the test AMP (final concentration of 50 µM). Ookinetes were incubated for 30 min in conjunction with triplicate control wells containing medium with 2.5 µl of water instead of AMP. A sub-sample of parasites was then added to an equal volume of 5% erythrosin B to assess viability (150 ookinetes in total, taken from 3 wells). Each of the 33 AMPs was screened in this way and assays were performed 3 times. AMPs displaying a high degree of toxicity (>90% of ookinetes displaying erythrosin B staining) underwent further ookinete assays using a concentration of 100 µM AMP. To assess synergistic effects, combinations of two peptides were also tested at a concentration of 25 µM per AMP, in the assay described above.

[2] = 50 µM of single peptide, n = 150 ookinetes per treatment per replicate

AGYLLGKINLKALAALAKKILGGAGYLLGKINLKALAALAKKIL [TP10 dimer, TP10 (dimer)]
Significance of effect on longevity over 10 days [1]: N/S
Percent alive, peptide [1]: 76%
Oocyst intensity (mean number of oocysts per gut, range in parentheses), peptide (P. falciparum; Replicate 1): <1 (0–2)
Oocyst prevalence (oocyst positive mosquitoes), peptide (P. falciparum; Replicate 1, dissected after 8 days): 17% (30)
Oocyst intensity (mean number of oocysts per gut, range in parentheses), peptide (P. falciparum; Replicate 2): 0
Oocyst prevalence (oocyst positive mosquitoes), peptide (P. falciparum; Replicate 2): 0% (30)
Oocyst intensity (mean number of oocysts per gut, range in parentheses), peptide (P. falciparum; Replicate 3): 2 (0–14)
Oocyst prevalence (oocyst positive mosquitoes), peptide (P. falciparum; Replicate 3): 37% (30)
Average reduction of intensity of infection (P. falciparum; over three replicates): 82%
Average reduction of prevalence (P. falciparum; over three replicates): 60%
Average ookinete viability (3 reps), peptide (P. berghei ookinetes; [2]): 0%
Reduction in ookinete viability (P. berghei ookinetes; 50 µM of single peptide): 100%

KFPKFRRGIPFLFVGPSGKFPKFRRGIPFLFV [Vida 3 dimer]
Significance of effect on longevity over 10 days [1]: N/S
Percent alive, peptide [1]: 68%
Average ookinete viability (3 reps), peptide (P. berghei ookinetes; [2]): 4%
Reduction in ookinete viability (P. berghei ookinetes; 50 µM of single peptide): 96%
Average ookinete viability (3 reps), peptide (P. berghei ookinetes; 100 µM of single peptide): 0%
Reduction in ookinete viability (P. berghei ookinetes; 100 µM of single peptide): 100%
Reduction in ookinete viability (P. berghei ookinetes; 100 µM of single peptide, listed as Vida3 dimer): 100%
